Laboratory results taken from patent US9981909B2 (Janssen Pharmaceutica NV, priority 2008, dated 2018).
Counter-ions that a name gives are not always drawn.

Key:
rat 5-HT7 receptor = rat 5-HT7 receptor (Rattus norvegicus (Rat), UniProt P32305); assay: r5-HT7 binding assay, competitive radioligand binding with [3H]5-CT
Procedure, shortened: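 Rat 5-HT7 binding: HEK-293 membrane fractions, [3H]5-CT displacement, radioactivity counted, Ki reported. Antagonist mode: intact r5-HT7 HEK-293 cells, test compound 10 min, then 5-CT 100 nM for 20 min, lysis, cAMP by competitive immunoassay.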

r5-HT7 receptor = r5-HT7 receptor (Rattus norvegicus (Rat), UniProt P32305); assay: HitHunter cAMP assay, antagonist testing against 100 nM 5-CT; format: cell-based; settings: antagonist testing, 100 nM 5-CT challenge, HEK-293 r5-HT7; read-out: R5HT7 cAMP pKb (converted)
Protocol: (§1) Receptor binding was performed using membrane fractions prepared from the HEK-293 cell line recombinantly expressing rat 5-HT7 receptors (NCBI accession NM_022938). Compound affinity for the rat 5-HT7 receptor subtype was evaluated by competitive radioligand binding assays using 5-carboxamido[^3H]tryptamine ([^3H]5-CT) (Amersham Biosciences, cat. 90000403) detection. HitHunter™ cAMP assays are in-vitro based competitive immunoassays. The assay was performed on the HEK-293 cell line stably transfected with r5-HT7 receptor. Cells were pre-incubated with test compounds for 10 minutes. For antagonist testing, the cells were then challenged with 100 nM 5-CT for 20 minutes. Cells were then lysed and cAMP measured according to manufacturers protocol (Amersham, cat. NET791250UC) or [^3H]mesulergine (Amersham, cat. TRK1041). The assay was performed on membranes prepared from HEK-293 cells stably transfected with h5-HT6. Following centrifugation, membranes were resuspended and incubated for 60 min at room temperature with 1.7 nM [^3H]LSD in the presence of increasing concentration of test compounds. Nonspecific binding was defined in the presence of 10 μM clozapine (Tocris, cat. TRK1068). Homogenized HEK-293 membranes expressing the human SERT were incubated in 50 mM Tris-HCl (pH 7.5), 120 mM NaCl, 5 mM KCl with [^3H]-citalopram (3 nM) with or without test compounds. Nonspecific binding was determined in the presence of 10 μM fluoxetine. Radioactivity readouts and Ki values were performed as previously described for r5-HT7. […] Compounds were assayed in their free form or as salts, as indicated in the Examples section above.

human SERT = human SERT (Homo sapiens (Human), UniProt P31645); assay: human SERT binding assay with [3H]-citalopram on HEK-293 membranes; settings: read-out: hSERT binding Ki
Protocol: as §1

[1] = rat 5-HT7 receptor, HEK-293 membranes

Sequence of rat 5-HT7 receptor (P32305 1-435): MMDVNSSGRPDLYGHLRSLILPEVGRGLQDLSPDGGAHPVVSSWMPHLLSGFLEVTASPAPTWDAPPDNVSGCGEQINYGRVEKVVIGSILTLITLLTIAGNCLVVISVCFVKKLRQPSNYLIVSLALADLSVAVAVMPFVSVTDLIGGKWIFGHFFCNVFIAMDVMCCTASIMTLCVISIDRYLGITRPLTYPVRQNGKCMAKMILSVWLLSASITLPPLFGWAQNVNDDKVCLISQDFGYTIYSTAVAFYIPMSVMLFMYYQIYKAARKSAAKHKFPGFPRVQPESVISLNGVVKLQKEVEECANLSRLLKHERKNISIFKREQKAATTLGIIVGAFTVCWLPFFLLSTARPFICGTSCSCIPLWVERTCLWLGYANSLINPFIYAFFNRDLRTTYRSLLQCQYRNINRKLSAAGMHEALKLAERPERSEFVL
Sequence of r5-HT7 receptor (P32305 1-435): as above
Sequence of human SERT (P31645 whole entry): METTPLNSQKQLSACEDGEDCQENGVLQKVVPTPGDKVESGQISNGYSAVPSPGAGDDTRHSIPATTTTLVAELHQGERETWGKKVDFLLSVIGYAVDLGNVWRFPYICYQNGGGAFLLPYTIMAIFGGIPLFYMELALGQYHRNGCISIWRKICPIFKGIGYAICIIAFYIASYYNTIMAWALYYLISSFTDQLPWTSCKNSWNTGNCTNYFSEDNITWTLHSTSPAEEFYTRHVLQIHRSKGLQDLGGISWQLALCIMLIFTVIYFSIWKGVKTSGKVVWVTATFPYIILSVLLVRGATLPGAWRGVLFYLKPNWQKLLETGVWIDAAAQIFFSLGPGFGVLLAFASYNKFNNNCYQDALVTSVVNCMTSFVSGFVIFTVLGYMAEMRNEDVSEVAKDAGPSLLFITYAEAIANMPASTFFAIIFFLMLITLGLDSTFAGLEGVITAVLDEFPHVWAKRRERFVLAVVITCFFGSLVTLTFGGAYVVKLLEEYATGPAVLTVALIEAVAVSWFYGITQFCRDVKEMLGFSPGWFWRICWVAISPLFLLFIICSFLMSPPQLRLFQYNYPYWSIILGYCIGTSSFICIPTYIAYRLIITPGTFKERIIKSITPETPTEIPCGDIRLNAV

Ki (rat 5-HT7 receptor; [1]) [nM]	Kb (r5-HT7 receptor) [nM]	Ki (human SERT) [nM]	Ki (rat 5-HT7 receptor; rat 5-HT7, HEK-293 membranes) [nM]	SMILES
23	31.6	–	–	CC(Oc1ccc(Br)cc1OC1CNC1)c1cccc(C(F)(F)F)c1 (racemic) [Example 112, (±)-3-[5-Bromo-2-[1-(3-trifluoromethyl-phenyl)-ethoxy]-phenoxy]-azetidine]
40	31.6	–	–	Brc1ccc(OC2CCc3ccccc32)c(OC2CNC2)c1 (racemic) [Example 151, (±)-3-[5-Bromo-2-(indan-1-yloxy)-phenoxy]-azetidine]
84	63.1	–	–	Clc1ccc2c(c1)C(Oc1ccc(Br)cc1OC1CNC1)CC2 (racemic) [Example 153, (±)-3-[5-Bromo-2-(6-chloro-indan-1-yloxy)-phenoxy]-azetidine]
252	> 10000	–	–	Cc1ccc2c(c1)C(Oc1ccc(Br)cc1OC1CNC1)CC2 (racemic) [Example 156, (±)-3-[5-Bromo-2-(6-methyl-indan-1-yloxy)-phenoxy]-azetidine]
8	0.631	–	–	CCCN1CC(Oc2cc(Br)ccc2OCc2cccc(Cl)c2)C1 [Example 4, 3-[5-Bromo-2-(3-chloro-benzyloxy)-phenoxy]-1-propyl-azetidine]
10	50.1	–	–	CN1CCC(Oc2cc(Br)ccc2OCc2cccc(Cl)c2)CC1 [Example 66, 4-[5-Bromo-2-(3-chloro-benzyloxy)-phenoxy]-1-methyl-piperidine]
13	398	–	–	Fc1ccccc1COc1ccc(Br)cc1OC1CCNCC1 [Example 67, 4-[5-Bromo-2-(2-fluoro-benzyloxy)-phenoxy]-piperidine]
17	631	–	–	Fc1cccc(COc2ccc(Br)cc2OC2CCNCC2)c1 [Example 68, 4-[5-Bromo-2-(3-fluoro-benzyloxy)-phenoxy]-piperidine]
16	–	24	–	Clc1ccc(OCc2ccc3occc3c2)c(OC2CNC2)c1 [Example 83, 3-[2-(Benzofuran-5-ylmethoxy)-5-chloro-phenoxy]-azetidine]
34	–	61	–	Clc1ccc(OCc2ccc3ncsc3c2)c(OC2CNC2)c1 [Example 84, 6-[2-(Azetidin-3-yloxy)-4-chloro-phenoxymethyl]-benzothiazole]
95	–	404	–	Cn1nnc2ccc(COc3ccc(Cl)cc3OC3CNC3)cc21 [Example 85, 6-[2-(Azetidin-3-yloxy)-4-chloro-phenoxymethyl]-1-methyl-1H-benzotriazole]
38	–	121	–	FC1(F)Oc2ccc(COc3ccc(Cl)cc3OC3CNC3)cc2O1 [Example 86, 3-[5-Chloro-2-(2,2-difluoro-benzo[1,3]dioxol-5-ylmethoxy)-phenoxy]-azetidine]
25	–	242	–	Clc1ccc(OCc2cc3ccccc3o2)c(OC2CNC2)c1 [Example 89, 3-[2-(Benzofuran-2-ylmethoxy)-5-chloro-phenoxy]-azetidine]
73	–	1360	–	CC(Oc1ccc(Cl)cc1OC1CNC1)c1nc2ccccc2s1 (stereo not drawn) [Example 131, 2-[1-[2-(Azetidin-3-yloxy)-4-chloro-phenoxy]-ethyl]-benzothiazole]
91	–	613	–	FCC(Oc1ccc(Br)cc1OC1CNC1)c1ccccc1 (stereo not drawn) [Example 142, 3-[5-Bromo-2-(2-fluoro-1-phenyl-ethoxy)-phenoxy]-azetidine]
16	–	95	–	Clc1ccc(OCC2CCc3ccccc3O2)c(OC2CNC2)c1 (stereo not drawn) [Example 165, 3-[5-Chloro-2-(chroman-2-ylmethoxy)-phenoxy]-azetidine]
7	–	234	–	Clc1ccc(OCCOc2ccccc2)c(OC2CNC2)c1 [Example 171, 3-[5-Chloro-2-(2-phenoxy-ethoxy)-phenoxy]-azetidine]
11	–	4	–	Fc1ccc2c(c1)CC(Oc1ccc(Cl)cc1OC1CNC1)C2 (stereo not drawn) [Example 175, 3-[5-Chloro-2-(5-fluoro-indan-2-yloxy)-phenoxy]-azetidine]

Ki (rat 5-HT7 receptor; [1]) [nM]	Kb (r5-HT7 receptor) [nM]	Ki (human SERT) [nM]	Ki (rat 5-HT7 receptor; rat 5-HT7, HEK-293 membranes) [nM]	SMILES
24	–	75	–	Clc1ccc2c(c1)CC(Oc1ccc(Cl)cc1OC1CNC1)C2 (stereo not drawn) [Example 176, 3-[5-Chloro-2-(5-chloro-indan-2-yloxy)-phenoxy]-azetidine]
17	–	131	–	COc1cccc2c1CC(Oc1ccc(Cl)cc1OC1CNC1)C2 (stereo not drawn) [Example 178, 3-[5-Chloro-2-(4-methoxy-indan-2-yloxy)-phenoxy]-azetidine]
36	–	340	–	FC(COc1ccc(Cl)cc1OC1CNC1)c1ccccc1 (stereo not drawn) [Example 187, 3-[5-Chloro-2-(2-fluoro-2-phenyl-ethoxy)-phenoxy]-azetidine]
359	–	53	–	Clc1cnc(OCc2ccccc2)c(OC2CNC2)c1 [Example 196, 3-(Azetidin-3-yloxy)-2-benzyloxy-5-chloro-pyridine]
20	15.8	–	–	CCN1CC(Oc2cc(F)ccc2OCc2cccc(Cl)c2)C1 [Example 207, 3-[2-(3-Chloro-benzyloxy)-5-fluoro-phenoxy]-1-ethyl-azetidine]
365	–	303	–	Fc1ccc(OCc2ccc(C(F)(F)F)o2)c(OC2CNC2)c1 [Example 208, 3-[5-Fluoro-2-(5-trifluoromethyl-furan-2-ylmethoxy)-phenoxy]-azetidine]
–	–	41	53	CC1(Oc2cc(Br)ccc2OCc2cccc(Cl)c2)CNC1 [Example 212, 3-[5-Bromo-2-(3-chloro-benzyloxy)-phenoxy]-3-methyl-azetidine]
–	–	1690	9000	CC(C)C1(Oc2cc(Br)ccc2OCc2cccc(Cl)c2)CNC1 [Example 214, 3-[5-Bromo-2-(3-chloro-benzyloxy)-phenoxy]-3-isopropyl-azetidine]
–	–	925	3	CC(C)(C)N1CC(Oc2cc(Br)ccc2OCc2cccc(F)c2)C1 [Example 229, 3-[5-Bromo-2-(3-fluoro-benzyloxy)-phenoxy]-1-tert-butyl-azetidine]
–	–	1200	6	CC(C)(C)N1CC(Oc2cc(Cl)ccc2OCc2cccc(C(F)(F)F)c2)C1 [Example 230, 1-tert-Butyl-3-[5-chloro-2-(3-trifluoromethyl-benzyloxy)-phenoxy]-azetidine]
–	–	4480	15	CC(Oc1ccc(Cl)cc1OC1CN(C(C)(C)C)C1)c1cccc(C(F)(F)F)c1 (stereo not drawn) [Example 231, 1-tert-Butyl-3-[5-chloro-2-[1-(3-trifluoromethyl-phenyl)-ethoxy]-phenoxy]-azetidine]
–	–	1	3	FC(F)(F)c1ccc(COc2ccc(Br)cc2CC2CNC2)o1 [Example 232, 3-[5-Bromo-2-(5-trifluoromethyl-furan-2-ylmethoxy)-benzyl]-azetidine]
–	–	23	27	Clc1cccc(COc2ccc(Br)cc2OCC2CNC2)c1 [Example 233, 3-[5-Bromo-2-(3-chloro-benzyloxy)-phenoxymethyl]-azetidine]
–	200	–	9	Brc1cccc(Oc2ccc(Br)cc2OC2CNC2)c1 [Example 245, 3-[5-Bromo-2-(3-bromo-phenoxy)-phenoxy]-azetidine]
–	158	–	11	Clc1ccc(Oc2ccc(Br)cc2OC2CNC2)cc1 [Example 251, 3-[5-Bromo-2-(4-chloro-phenoxy)-phenoxy]-azetidine]
–	501	–	18	FC(F)(F)Oc1cccc(Oc2ccc(Br)cc2OC2CNC2)c1 [Example 253, 3-[5-Bromo-2-(3-trifluoromethoxy-phenoxy)-phenoxy]-azetidine]
–	–	112	31	Clc1ccc(Oc2nc3ccccc3o2)c(OC2CNC2)c1 [Example 262, 2-[2-(Azetidin-3-yloxy)-4-chloro-phenoxy]-benzooxazole]

SMILES	Ki (rat 5-HT7 receptor; [1]) [nM]	Kb (r5-HT7 receptor) [nM]	Ki (human SERT) [nM]	Ki (rat 5-HT7 receptor; rat 5-HT7, HEK-293 membranes) [nM]
C[C@H](Oc1ccc(Cl)cc1OC1CNC1)c1cccc(C(F)(F)F)c1 [Example 102, (S)-3-[5-Chloro-2-[1-(3-trifluoromethyl-phenyl)-ethoxy]-phenoxy]-azetidine trifluoroacetate]	376	–	954	–
CON=C(COc1ccc(Cl)cc1OC1CNC1)c1ccccc1 [Example 182, 2-[2-(Azetidin-3-yloxy)-4-chloro-phenoxy]-1-phenyl-ethanone O-methyl-oxime]	76	–	514	–
CC1(Oc2cc(Br)ccc2OCc2ccc(C(F)(F)F)o2)CNC1 [Example 216]	–	–	36	16
Clc1ccc(OC2CC(c3ccccc3)C2)c(OC2CNC2)c1 (stereo not drawn) [Example 228, 3-[5-Chloro-2-(3-phenyl-cyclobutoxy)-phenoxy]-azetidine]	–	–	72	9
